Data: patent US20210236507A1, “METHODS AND PHARMACEUTICAL COMPOSITIONS FOR PREVENTING RELAPSE IN A PERSON WITH AN ADDICTION USING BETA ADRENERGIC RECEPTOR ANTAGONIST AND MUSCARINIC RECEPTOR ANTAGONIST COMBINATIONS” (MAGNOLIA CNS, LLC, priority 2020, published 2021)
Entries after “also recorded” stand apart in the source; their conditions may differ. Structures can show the parent of a compound that is named as a salt.

How the values were obtained:
[1] = system: humans; test: Taste and mouth paresthesia of dose forms noted in humans during development; type: in vivo, human; conditions: sublingual/liquid/solid dose forms
Text: The pharmaceutical compositions of the present invention, when intended for sublingual, buccal, and/or oral delivery, may benefit from taste-masking with natural and/or artificial flavors and/or sweeteners (e.g., mannitol, sucralose, monosaccharides, and disaccharides). Mouth paresthesia (numbness) can occur with propranolol HCl as a perceived adverse effect.
Alternative beta blockers may be chosen that lack these undesirable properties, such as atenolol.
Tablets are formed by compression of the powder using a mechanical tablet press. For instance tablets without coatings are prepared with composition #11 at about 70 mg each, for use as sublingual or oral dose forms. At this size of tablet an adult dose would deliver 20 mg propranolol HC and 0.5 mg scopolamine HBr. Alternatively, tablets may be produced using a triturate tablet mold (e.g., from the vendor PCCA), wherein the triturated powder is moistened with 95% ethanol and then the wells are filled with the moistened composition, extruded from the wells, and dried. The intra-oral mucosal (e.g., sublingual) tablets dissolve rapidly under the tongue, for instance in less than one minute (e.g., solid dose forms #13 and 14). […] Sublingual (or buccal) tablets may be preferred for rapid disintegration, dissolution, absorption and increased bioavailability via the mucosal route. A sublingual tablet of #23 weighing ca. 82 mg delivers a dose of ca. 25 mg atenolol and ca. 0.25 mg of scopolamine HBr. Tablets may also be ingested orally, although it is rational to presume that absorption will be somewhat delayed and bioavailability will be somewhat reduced with many APIs, relative to the mucosal route.

[2] = molecular target: muscarinic acetylcholine receptors (all five human receptor subtypes); conditions: cited from earlier work

SMILES: CC(C)NCC(O)COc1cccc2ccccc12 (stereo not drawn) [Propranolol HCl]
- mouth/tongue paresthesia ([1]; HCl): delayed paresthesia of the tongue
- taste ([1]; HCl): “acidic” and “medicine” taste
- mouth/tongue paresthesia ([1]; listed as propranolol HCl, HCl): produces mouth paresthesia
- taste ([1]; listed as propranolol HCl, HCl): “acidic” and “medicine” taste
- mouth/tongue paresthesia ([1]; listed as propranolol, HCl): Paresthesia
- taste ([1]; listed as propranolol, HCl): undesirable taste

SMILES: CN1[C@@H]2C[C@@H](OC(=O)[C@H](CO)c3ccccc3)C[C@H]1[C@@H]1O[C@@H]12 [Scopolamine]
- Ki [2]: 0.34 to 53 nM

SMILES: CC(C)NCC(O)COc1ccc(CC(N)=O)cc1 (stereo not drawn) [atenolol]
- mouth/tongue paresthesia [1]: neither property was observed; also recorded: lacked these undesirable characteristics
- taste [1]: neither property was observed; also recorded: lacked these undesirable characteristics
